Assay results published in EPA's ToxValDB 9.5 (doi:10.2903/j.efsa.2010.1592).

Tests used:
[1] = test system: Apis mellifera; details: acute; duration: 48 hours; dermal; mortality
[2] = test system: Anas platyrhynchos; details: oral, mortality
[3] = test system: Canidae; details: oral, Dog Other, histopathology: nonneoplastic
[4] = test system: Pimephales promelas; details: chronic/long-term; duration: 32 days; other
[5] = test system: Tagia sp.; details: acute; duration: 14 days; mortality
[6] = test system: Daphnia magna; details: chronic/long-term; duration: 21 days; reproduction
[7] = test system: Rattus norvegicus
[8] = test system: Colinus virginianus
[9] = test system: Oncorhynchus mykiss; details: acute; duration: 96 hours; mortality
[10] = test system: Typhlodromus pyri; test: LR50; higher = less toxic; details: not reported; mortality

Compound: COc1cc(OC)n2nc(S(=O)(=O)Nc3c(Cl)ccc(C)c3Cl)nc2n1 [Metosulam]
- LD50 [1]: > 100 µg/piece
- LD50 ([2]; acute, unspecified): > 2000 mg/kg
- LC50 ([2]; short-term, feed): > 1920 mg/kg-day
- NOAEL ([3]; chronic, duration: 1 years): 10 mg/kg-day
- NOAEL ([3]; short-term, duration: 2 weeks, diet): 25 mg/kg-day
- NOEC [4]: 4.24 mg/L
- LC50 [5]: > 1000 mg/kg
- NOEC [6]: 2.5 mg/L
- LD50 ([7]; acute, oral, mortality): > 5000 mg/kg
- NOAEL ([7]; chronic, duration: 2 years, histopathology: nonneoplastic): 5 mg/kg-day
- NOEL ([7]; chronic, histopathology: nonneoplastic): 30 mg/kg-day
- LC50 ([8]; acute, oral, diet, mortality): > 1400 mg/kg-day
- LD50 ([8]; acute, oral, mortality): > 2250 mg/kg
- NOEC ([8]; reproduction developmental): 22 mg/kg-day
- LC50 [9]: > 29.3 µg/mL
- LR50 [10]: > 40 mg/kg
